The record followed here is patent US10316035B2, “Triazolopyridine inhibitors of myeloperoxidase” (BRISTOL-MYERS SQUIBB COMPANY, priority 2015, dated 2019).

The assay addresses T1, myeloperoxidase (MPO) (Homo sapiens, UniProt P05164).
T1 sequence (P05164 49-745): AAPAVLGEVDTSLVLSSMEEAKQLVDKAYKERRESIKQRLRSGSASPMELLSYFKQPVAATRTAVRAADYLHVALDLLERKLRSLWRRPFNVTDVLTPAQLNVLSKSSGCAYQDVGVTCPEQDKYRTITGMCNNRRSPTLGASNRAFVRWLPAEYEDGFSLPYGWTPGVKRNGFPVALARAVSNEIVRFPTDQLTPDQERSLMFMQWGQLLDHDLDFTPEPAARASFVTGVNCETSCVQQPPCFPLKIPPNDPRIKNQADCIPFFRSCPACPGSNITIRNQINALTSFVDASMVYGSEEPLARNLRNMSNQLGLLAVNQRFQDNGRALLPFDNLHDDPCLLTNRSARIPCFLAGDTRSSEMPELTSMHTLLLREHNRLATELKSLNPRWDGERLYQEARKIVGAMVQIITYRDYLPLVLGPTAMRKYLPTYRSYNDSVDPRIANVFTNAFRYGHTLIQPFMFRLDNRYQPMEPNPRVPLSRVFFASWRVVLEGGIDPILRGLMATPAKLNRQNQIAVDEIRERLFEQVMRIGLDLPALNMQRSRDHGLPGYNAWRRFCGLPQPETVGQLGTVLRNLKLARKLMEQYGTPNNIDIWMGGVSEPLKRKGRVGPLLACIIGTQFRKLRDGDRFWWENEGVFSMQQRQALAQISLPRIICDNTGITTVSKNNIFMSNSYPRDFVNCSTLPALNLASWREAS
As to the kind of experiment: MPO peroxidation assay (Amplex Red assay). The format is biochemical. The conditions noted are these: MPO peroxidation, potency range class; read-out: Amplex Red IC50. Put shortly:
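Peroxidase turnover of Amplex Red to fluorescent resorufin (Ex 535/Em 590 nm) was followed for 15 min in 100 mM KPi, pH 7.4, after 10 min room-temperature preincubation of compound with 200 pM enzyme plus 40 nM H2O2. The substrate mix contained 200 μM Amplex Red and 10 mM H2O2. IC50s came from linear-phase rates (180–540 s) fitted with a Hill equation.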
One may read the IC50 as the concentration that inhibits the measured activity by half. For the compound `CC(=O)N1CCN(c2ccc(-c3ccc(COc4cc(N)nc5[nH]nnc45)c(C#N)c3)cn2)CC1` [Example 318, 5-(6-(4-acetylpiperazin-1-yl)pyridin-3-yl)-2-(((5-amino-3H-[1,2,3]triazolo[4,5-b]pyridin-7-yl)oxy)methyl) benzonitrile], the IC50 lay in the range of 1 to 100 nM.

As for `CN1CCN(c2ccc(-c3ccc(COc4cc(N)nc5[nH]nnc45)c(C#N)c3)cn2)CC1` [Example 319, 2-(((5-amino-3H-[1,2,3]triazolo[4,5-b]pyridin-7-yl)oxy)methyl)-5-(6-(4-methylpiperazin-1-yl)pyridin-3-yl)benzonitrile], the IC50 is 1 to 100 nM.

As to `N#Cc1cc(-c2ccc(N3CCCCC3)nc2)ccc1COc1cc(N)nc2[nH]nnc12` [Example 320, 2-(((5-amino-3H-[1,2,3]triazolo[4,5-b]pyridin-7-yl)oxy)methyl)-5-(6-(piperidin-1-yl)pyridin-3-yl)benzonitrile], the IC50 was 101 to 999 nM. On to `CN1CCN(c2ncc(-c3ccc(COc4cc(N)nc5[nH]nnc45)c(C#N)c3)cn2)CC1` [Example 321, 2-(((5-amino-3H-[1,2,3]triazolo[4,5-b]pyridin-7-yl)oxy)methyl)-5-(2-(4-methylpiperazin-1-yl)pyrimidin-5-yl)benzonitrile], for which the IC50 lay within 1 to 100 nM. `CS(=O)(=O)c1cncc(-c2ccc(COc3cc(N)nc4[nH]nnc34)c(C#N)c2)c1` [Example 322, 2-(((5-amino-3H-[1,2,3]triazolo[4,5-b]pyridin-7-yl)oxy)methyl)-5-(5-(methylsulfonyl)pyridin-3-yl)benzonitrile]: the IC50 lay in the range of 1 to 100 nM. To `COc1ncc(-c2ccc(COc3cc(N)nc4[nH]nnc34)c(C#N)c2)cc1F` [Example 323, 2-(((5-amino-3H-[1,2,3]triazolo[4,5-b]pyridin-7-yl)oxy)methyl)-5-(5-fluoro-6-methoxypyridin-3-yl)benzonitrile] belongs 1 to 100 nM; to `N#Cc1cc(-c2ccc(F)nc2F)ccc1COc1cc(N)nc2[nH]nnc12` [Example 324, 2-(((5-amino-3H-[1,2,3]triazolo[4,5-b]pyridin-7-yl)oxy)methyl)-5-(2,6-difluoropyridin-3-yl)benzonitrile], 1 to 100 nM; to `N#Cc1ccc(-c2ccc(COc3cc(N)nc4[nH]nnc34)c(C#N)c2)cn1` [Example 325, 5-(4-(((5-amino-3H-[1,2,3]triazolo[4,5-b]pyridin-7-yl)oxy)methyl)-3-cyanophenyl) picolinonitrile], 1 to 100 nM. To `N#Cc1cc(-c2ccc(N3CCCC3)nc2)ccc1COc1cc(N)nc2[nH]nnc12` [Example 326, 2-(((5-amino-3H-[1,2,3]triazolo[4,5-b]pyridin-7-yl)oxy)methyl)-5-(6-(pyrrolidin-1-yl)pyridin-3-yl)benzonitrile] belongs 1 to 100 nM; to `N#Cc1cc(-c2ccc(N3CCNCC3)nc2)ccc1COc1cc(N)nc2[nH]nnc12` [Example 327, 2-(((5-amino-3H-[1,2,3]triazolo[4,5-b]pyridin-7-yl)oxy)methyl)-5-(6-(piperazin-1-yl)pyridin-3-yl)benzonitrile], 1 to 100 nM; to `N#Cc1cc(-c2ccc(CN)nc2)ccc1COc1cc(N)nc2[nH]nnc12` [Example 328, 2-(((5-amino-3H-[1,2,3]triazolo[4,5-b]pyridin-7-yl)oxy)methyl)-5-(6-(aminomethyl)pyridin-3-yl)benzonitrile], 1 to 100 nM. The figure for `N#Cc1cc(-c2cnc(N3CCNCC3)nc2)ccc1COc1cc(N)nc2[nH]nnc12` [Example 329, 2-(((5-amino-3H-[1,2,3]triazolo[4,5-b]pyridin-7-yl)oxy)methyl)-5-(2-(piperazin-1-yl)pyrimidin-5-yl)benzonitrile] is 1 to 100 nM; for `N#Cc1cc(-c2ccc(F)nc2)ccc1COc1cc(N)nc2[nH]nnc12` [Example 330, 2-(((5-amino-3H-[1,2,3]triazolo[4,5-b]pyridin-7-yl)oxy)methyl)-5-(6-fluoropyridin-3-yl)benzonitrile] it is 1 to 100 nM; for `COc1ccccc1CNC(=O)c1ccc(COc2cc(N)nc3[nH]nnc23)c(Cl)c1` [Example 331, 4-((5-amino-3H-[1,2,3]triazolo[4,5-b]pyridin-7-yloxy)methyl)-3-chloro-N-(2-methoxybenzyl) benzamide] it is 1 to 100 nM.

With `Nc1cc(OCc2c(F)cc(-c3cccnc3)cc2F)c2nn[nH]c2n1` [Example 332, 7-((2,6-difluoro-4-(pyridin-3-yl)benzyl)oxy)-3H-[1,2,3] triazolo[4,5-b]pyridin-5-amine], the IC50 lay in the range of 1 to 100 nM. To `COc1ccc(-c2cc(F)c(COc3cc(N)nc4[nH]nnc34)c(F)c2)cn1` [Example 333, 7-((2,6-difluoro-4-(6-methoxypyridin-3-yl)benzyl)oxy)-3H-[1,2,3]triazolo[4,5-b] pyridin-5-amine] belongs 1 to 100 nM; to `Nc1cc(OCc2c(F)cc(-c3ccc(N4CCOCC4)nc3)cc2F)c2nn[nH]c2n1` [Example 335, 7-((2,6-difluoro-4-(6-morpholinopyridin-3-yl)benzyl)oxy)-3H-[1,2,3]triazolo[4,5-b] pyridin-5-amine], 1 to 100 nM; to `Nc1ccc(-c2cc(F)c(COc3cc(N)nc4[nH]nnc34)c(F)c2)cn1` [Example 337, 7-((4-(6-aminopyridin-3-yl)-2,6-difluorobenzyl)oxy)-3H-[1,2,3]triazolo[4,5-b] pyridin-5-amine], 1 to 100 nM.

As to `N#Cc1ccc(-c2cc(F)c(COc3cc(N)nc4[nH]nnc34)c(F)c2)cn1` [Example 338, 5-(4-(((5-amino-3H-[1,2,3]triazolo[4,5-b]pyridin-7-yl)oxy)methyl)-3,5-difluorophenyl) picolinonitrile], the IC50 was 1 to 100 nM.

In the case of `Nc1cc(OCc2c(F)cc(-c3ccc(OCc4ccccc4)nc3)cc2F)c2nn[nH]c2n1` [Example 339, 7-((4-(6-(benzyloxy)pyridin-3-yl)-2,6-difluorobenzyl)oxy)-3H-[1,2,3]triazolo[4,5-b] pyridin-5-amine], the IC50 was 101 to 999 nM.

On to `Nc1cc(OCc2c(F)cc(-c3ccc(F)nc3F)cc2F)c2nn[nH]c2n1` [Example 340, 7-((4-(2,6-difluoropyridin-3-yl)-2,6-difluorobenzyl)oxy)-3H-[1,2,3]triazolo[4,5-b]pyridin-5-amine], for which the IC50 is 101 to 999 nM.

Regarding `NC(=O)c1ccc(-c2cc(F)c(COc3cc(N)nc4[nH]nnc34)c(F)c2)cn1` [Example 341, 5-(4-(((5-amino-3H-[1,2,3]triazolo[4,5-b]pyridin-7-yl)oxy)methyl)-3,5-difluorophenyl) picolinamide], the IC50 fell in the range of 1 to 100 nM. As to `Nc1cc(OCc2c(F)ccc(-c3ccc(N4CCOCC4)nc3)c2Cl)c2nn[nH]c2n1` [Example 342, 7-((2-chloro-6-fluoro-3-(6-morpholinopyridin-3-yl)benzyl)oxy)-3H-[1,2,3]triazolo[4,5-b] pyridin-5-amine], the IC50 lay in the range of 1 to 100 nM. The figure for `Nc1cncc(-c2ccc(F)c(COc3cc(N)nc4[nH]nnc34)c2Cl)c1` [Example 343, 7-((3-(5-aminopyridin-3-yl)-2-chloro-6-fluorobenzyl)oxy)-3H-[1,2,3]triazolo[4,5-b] pyridin-5-amine] is 1 to 100 nM; for `Nc1cc(OCc2c(F)ccc(-c3ccc(N4CCNCC4)nc3)c2Cl)c2nn[nH]c2n1` [Example 344, 7-((2-chloro-6-fluoro-3-(6-(piperazin-1-yl)pyridin-3-yl)benzyl)oxy)-3H-[1,2,3]triazolo [4,5-b]pyridin-5-amine] it is 1 to 100 nM. The figure for `CN1CCN(c2ccc(-c3ccc(F)c(COc4cc(N)nc5[nH]nnc45)c3)cn2)CC1` [Example 346, 7-((2-fluoro-5-(6-(4-methylpiperazin-1-yl)pyridin-3-yl)benzyl)oxy)-3H-[1,2,3]triazolo [4,5-b]pyridin-5-amine] is 101 to 999 nM; for `Nc1cc(OCc2cc(-c3ccc(CO)nc3)ccc2F)c2nn[nH]c2n1` [Example 347, (5-(3-(((5-amino-3H-[1,2,3]triazolo[4,5-b]pyridin-7-yl)oxy)methyl)-4-fluorophenyl)pyridin-2-yl)methanol] it is 1 to 100 nM. The figure for `CN1CCN(c2ncc(-c3ccc(F)c(COc4cc(N)nc5[nH]nnc45)c3Cl)cn2)CC1` [Example 348, 7-((2-chloro-6-fluoro-3-(2-(4-methylpiperazin-1-yl)pyrimidin-5-yl)benzyl)oxy)-3H-[1,2,3]triazolo[4,5-b] pyridin-5-amine] is 101 to 999 nM; for `N#Cc1cc(-c2ccc(N3CCNC(=O)C3)nc2)ccc1COc1cc(N)nc2[nH]nnc12` [Example 349, 2-(((5-Amino-3H-[1,2,3]triazolo[4,5-b]pyridin-7-yl)oxy)methyl)-5-(6-(3-oxopiperazin-1-yl)pyridin-3-yl)benzonitrile] it is 101 to 999 nM; for `CC1CN(c2ccc(-c3ccc(COc4cc(N)nc5[nH]nnc45)c(C#N)c3)cn2)CC(C)N1` (stereo not drawn) [Example 350, 2-(((5-Amino-3H-[1,2,3]triazolo[4,5-b]pyridin-7-yl)oxy)methyl)-5-(6-(3,5-dimethylpiperazin-1-yl)pyridin-3-yl)benzonitrile] it is 1 to 100 nM.
